Measured values published in patent US20100160295A1, “TREATMENT OF RESTLESS LEG SYNDROME AND SLEEP DISORDERS” (SYNOSIA THERAPEUTICS, priority 2008, published 2010).

What was measured:
Format in all cases: in vivo, human
[1] = tested on: moderate to severe idiopathic RLS subjects; test: Beck Depression Inventory (BDI)
Experimental: (§1) The study multi-centre, randomized, double-blind, parallel-groups, placebo-controlled study with 2 treatment arms, oral HPPD inhibitor (2-(2-nitro-4-trifluoromethylbenzoyl)-1,3-cyclohexanedione) and placebo. Subjects were randomized to either treatment with an HPPD inhibitor or placebo in a 2:1 ratio. The subjects were dosed with 4 mg on day 1, and 2 mg/day on days 2-14. The total duration of treatment with study drug for each subject was 14 consecutive days ending at the day of the final sleep lab assessment (Day 14), with a follow-up examination 29 days after Baseline.
(§2) The objective of this exploratory study was to show proof-of-concept of therapy with an exemplary HPPD inhibitor in moderate to severe idiopathic RLS subjects.
Efficacy parameters were changes between Baseline and end of treatment in objective measures of Periodic Limb Movements (PLM) and sleep efficiency and in investigator evaluations of severity of RLS symptoms as well as in subject's report on severity of RLS symptoms, sleep disturbances and depressive feelings. […]

[2] = tested on: Subjects with RLS; test: Medical Outcomes Study (MOS) Sleep Scale, placebo-controlled study in RLS subjects
Experimental: as §1
(§3) Efficacy parameters were changes between Baseline and end of treatment in objective measures of Periodic Limb Movements (PLM) and sleep efficiency and in investigator evaluations of severity of RLS symptoms as well as in subject's report on severity of RLS symptoms, sleep disturbances and depressive feelings. Parameters measured included: • Periodic Limb Movement (PLM) Index, defined as the number of PLM events occurring during time-in-bed (PLMI/h TIB) • Periodic Limb Movements during Sleep Index, defined as the number of PLMs per hour of total sleep time (PLMSI/h TST) • PLM arousal index, defined as the number of PLM with arousals per hour of total sleep time (PLMSAI/h TST) • Periodic Limb Movements during wakefulness index, defined as the number of PLMs per hour occurring during wakefulness within time-in-bed (PLMWI/h TIB) • Sleep Efficiency (SE) expressed as the percentage total sleep time (TST) of total time in bed (TIB) • Total Sleep Time (TST) • Total number of arousals per TST • Sleep latency • Restless Legs Scale—6 items (RLS-6) (Kohnen et al, 2004) • IRLS total score change from start of treatment to end • Time to requiring rescue medication (defined as time to dropout due to the need of rescue medication for intolerable RLS symptoms) • Physicians' Global Impression, rated by the Clinical Global Impressions Scale (CGI): severity, change and treatment effect • CGI responders defined as the proportion of subjects who improved “much” or “very much” on CGI item “change”. • Patients' Global Impression (PGI) scale Item 1 (efficacy) • Medical Outcomes Study (MOS) Sleep Scale • Beck Depression Inventory (BDI) • In addition, a patient diary was to be completed between days 8 and 15 • HPPD inhibitor plasma concentrations at Baseline, end of treatment and follow-up • Tyrosine plasma concentration at Baseline, end of treatment and follow-up.
Subjects with RLS received either placebo (7 subjects) or an HPPD inhibitor (13 subjects) given as 4 mg on day 1, then 2 mg per day for days 2-14 of the trial. Various parameters relevant to RLS were monitored during the course of treatment, in particular the quality of their sleep patterns using a standard assessment scale (Medical Outcomes Study (MOS) Sleep Scale). Individuals were asked to complete a standard evaluation of their ‘normal’ sleep experience at the start of the trial (Baseline) and again at the end of treatment (EoT), with the various parameters scored according to the attached document.
The MOS Sleep Scale is a comprehensive subject completed sleep questionnaire consisting of 12 items (Hays and Stewart, 1992; Hays et al., 2005). Each item measures a unique aspect or characteristic of sleep. Overall, the MOS Sleep Scale measures the following:
All items, except for item 2, were transformed in a ‘0-100’ scale.
For the analysis of the MOS sleep scale, the following subscales were determined as means of the involved items (in part, after reversing the ratings in the ‘0-100’ scale, denoted by (R) in the item sequence):
Subjects self-reported the length of time it took for them to fall asleep and the average number of hours of sleep each night. Scores for all other items range from 1 (all of the time) to 6 (none of the time).
The MOS Sleep Scale was completed at Baseline (Visit 2) and final examination (Visit 3).

[3] = tested on: moderate to severe idiopathic RLS subjects; test: Patient diary of RLS symptoms
Experimental: as §1, §2, §3

[4] = EoT Visit, M-ITT, none of the placebo patients
[5] = EoT, PPS n = 13, 4 mg day 1, 2 mg/day days 2-14
[6] = EoT, PPS n = 13, item 2 raw scores
[7] = M-ITT, HPPD inhibitor vs placebo
[8] = change from Baseline to EoT, PPS n = 13

`O=C1CCCC(=O)C1C(=O)c1ccc(C(F)(F)F)cc1[N+](=O)[O-]` [HPPD Inhibitor, 2-(2-nitro-4-trifluoromethylbenzoyl)-1,3-cyclohexanedione] was tested, and the “depressive symptoms, mean differences between Baseline and EoT vs placebo” value [1] was “larger reduction of depressive symptoms”, the “patients reporting optimal sleep (7-8 hours), number” value [2, 4] was 5 patients and the “patients reporting optimal sleep (7-8 hours), percentage” value [2, 4] was 35.7%. The “patients reporting optimal sleep (7-8 hours), number” value ([2]; EoT Visit, PPS) was 4 patients, the “MOS Short of Breath Scale, absolute, Median” value ([2]; EoT, PPS n = 13) was 0.0 and the “MOS Short of Breath Scale, absolute, Range” value ([2]; EoT, PPS n = 13) was 0.0-40.0. The “MOS Sleep Adequacy Scale, absolute, Median” value ([2]; EoT, PPS n = 13) was 50.0, the “MOS Sleep Adequacy Scale, absolute, Range” value ([2]; EoT, PPS n = 13) was 0.0-80.0 and the “MOS Sleep Problems Index I, absolute, Median” value ([2]; EoT, PPS n = 13) was 33.3. For the same compound, the “MOS Sleep Problems Index I, absolute, Range” value ([2]; EoT, PPS n = 13) was 10.0-70.0, the “MOS Sleep Problems Index II, absolute, Median” value ([2]; EoT, PPS n = 13) was 32.8 and the “MOS Sleep Problems Index II, absolute, Range” value ([2]; EoT, PPS n = 13) was 11.1-74.4. For the same compound, the “MOS Snoring Scale, absolute, Median” value ([2]; EoT, PPS n = 13) was 20.0, the “MOS Snoring Scale, absolute, Range” value ([2]; EoT, PPS n = 13) was 0.0-40.0 and the “MOS Somnolence Scale, absolute, Median” value ([2]; EoT, PPS n = 13) was 13.3. The “MOS Somnolence Scale, absolute, Range” value ([2]; EoT, PPS n = 13) was 6.7-66.7, the “MOS Short of Breath Scale, absolute, M ± SD” value [2, 5] was 9.2 ± 15.5 and the “MOS Sleep Disturbance Scale, absolute, Median” value [2, 5] was 43.8. For the same compound, the “MOS Sleep Disturbance Scale, absolute, Range” value [2, 5] was 10.0-72.5, the “MOS Sleep Problems Index I, absolute, M ± SD” value [2, 5] was 36.7 ± 16.3 and the “MOS Sleep Problems Index II, absolute, M ± SD” value [2, 5] was 37.9 ± 16.8. For the same compound, the “MOS Snoring Scale, absolute, M ± SD” value [2, 5] was 20.0 ± 16.3, the “MOS Somnolence Scale, absolute, M ± SD” value [2, 5] was 24.6 ± 19.7 and the “MOS Sleep Disturbance Scale, absolute, M ± SD” value ([2]; EoT, PPS n = 13, 4 mg day 1, 2 mg/day days 2-14, 0-100 scale, higher = stronger sleep problems) was 41.8 ± 16.7. The “MOS Sleep Adequacy Scale, absolute, M ± SD” value ([2]; EoT, PPS n = 13, 4 mg day 1, 2 mg/day days 2-14, higher values = better) was 46.9 ± 25.9, the “MOS Sleep Quantity, absolute, Median” value [2, 6] was 6.0 h and the “MOS Sleep Quantity, absolute, Range” value [2, 6] was 4.0 to 8.0 h. The “MOS Sleep Quantity, absolute, M ± SD” value ([2]; EoT, PPS n = 13, item 2 raw scores, 4 mg day 1, 2 mg/day days 2-14) was 6.1 ± 1.0 h, the “MOS sleep adequacy: difference HPPD inhibitor—placebo, LS mean” value ([2]; M-ITT, 95%-CI: 1.30, 52.64, p=0.0405 two-sided from ANCOVA) was 26.97 and the “MOS sleep disturbance: difference HPPD inhibitor—placebo, LS mean” value ([2]; M-ITT, 95%-CI: −35.53, 0.93, p=0.0616 two-sided from ANCOVA) was −17.30. For the same compound, the “MOS sleep problems index II: difference HPPD inhibitor—placebo, LS mean” value ([2]; M-ITT, 95%-CI: −36.18, 2.61, p=0.0857 two-sided from ANCOVA) was −16.78, the “MOS sleep problems index I: difference HPPD inhibitor—placebo, LS mean” value ([2]; M-ITT, 95%-CI: −37.80, 0.31, p=0.0534 two-sided from ANCOVA) was −18.75 and the “MOS sleep adequacy: effect size d” value [2, 7] was 0.50. The “MOS sleep disturbance: effect size d” value [2, 7] was 0.55, the “MOS sleep problems index I: effect size d” value [2, 7] was 0.54 and the “MOS sleep problems index II: effect size d” value [2, 7] was 0.41. For the same compound, the “MOS Short of Breath Scale, change, M ± SD” value [2, 8] was −7.7 ± 19.2, the “MOS Short of Breath Scale, change, Median” value [2, 8] was 0.0 and the “MOS Short of Breath Scale, change, Range” value [2, 8] was −40.0-20.0. The “MOS Sleep Adequacy Scale, change, M ± SD” value [2, 8] was 26.9 ± 35.5, the “MOS Sleep Adequacy Scale, change, Median” value [2, 8] was 30.0 and the “MOS Sleep Adequacy Scale, change, Range” value [2, 8] was −50.0-80.0. For the same compound, the “MOS Sleep Disturbance Scale, change, M ± SD” value [2, 8] was −35.0 ± 27.5, the “MOS Sleep Disturbance Scale, change, Median” value [2, 8] was −46.3 and the “MOS Sleep Disturbance Scale, change, Range” value [2, 8] was −68.8-11.3. For the same compound, the “MOS Sleep Problems Index I, change, M ± SD” value [2, 8] was −23.8 ± 20.3, the “MOS Sleep Problems Index I, change, Median” value [2, 8] was −20.0 and the “MOS Sleep Problems Index I, change, Range” value [2, 8] was −60.0-3.3. The “MOS Sleep Problems Index II, change, M ± SD” value [2, 8] was −25.5 ± 19.9, the “MOS Sleep Problems Index II, change, Median” value [2, 8] was −23.9 and the “MOS Sleep Problems Index II, change, Range” value [2, 8] was −61.7-−1.7. For the same compound, the “MOS Sleep Quantity, change, M ± SD” value [2, 8] was 1.8 ± 1.1 h, the “MOS Sleep Quantity, change, Median” value [2, 8] was 2.0 h and the “MOS Sleep Quantity, change, Range” value [2, 8] was 0.0 to 3.0 h. For the same compound, the “MOS Snoring Scale, change, M ± SD” value [2, 8] was −6.2 ± 15.0, the “MOS Snoring Scale, change, Median” value [2, 8] was 0.0 and the “MOS Snoring Scale, change, Range” value [2, 8] was −40.0-20.0. For the same compound, the “MOS Somnolence Scale, change, M ± SD” value [2, 8] was −10.3 ± 16.0, the “MOS Somnolence Scale, change, Median” value [2, 8] was −13.3 and the “MOS Somnolence Scale, change, Range” value [2, 8] was −33.3-13.3. For the same compound, the “patient diary, RLS symptoms during the day when active: difference drug-placebo, LS mean” value ([3]; M-ITT, 95%-CI: −2.52, −0.04, p=0.0437 two-sided from ANCOVA) was −1.28, the “patient diary, RLS symptoms during the day: difference drug-placebo, LS mean” value ([3]; M-ITT, 95%-CI: −4.87, −0.27, p=0.0304 two-sided from ANCOVA) was −2.57 and the “patient diary, RLS symptoms when falling asleep: difference drug-placebo, LS mean” value ([3]; M-ITT, 95%-CI: −5.15, −0.13, p=0.0402 two-sided from ANCOVA) was −2.64. The “patient diary, improvement of RLS symptoms during the night and during the day at rest, or during inactivity” value ([3]; vs placebo) was “Trends were found”.
